Measured values: PubChem BioAssay AID1259407 (Chemical Carcinogenesis Research Information System (CCRIS), 2018)
Activity calls are given as the source filed them. How the calls were made is not given here.

Tested on: CCRIS mutagenicity, Ames/micronucleus/aberration tests
Test: CCRIS mutagenicity studies
[1] = Test System: AMES SALMONELLA TYPHIMURIUM, Strain/Indicator: TA1535, Metabolic Activation: NONE, Method: STANDARD PLATE
[2] = Test System: AMES SALMONELLA TYPHIMURIUM, Strain/Indicator: TA98, Metabolic Activation: NONE, Method: STANDARD PLATE
[3] = Test System: AMES SALMONELLA TYPHIMURIUM, Strain/Indicator: TA98, Metabolic Activation: RAT, LIVER, S-9, AROCLOR 1254, Method: STANDARD PLATE
[4] = Test System: AMES SALMONELLA TYPHIMURIUM, Strain/Indicator: TA100, Metabolic Activation: NONE, Method: STANDARD PLATE
[5] = Test System: AMES SALMONELLA TYPHIMURIUM, Strain/Indicator: TA100, Metabolic Activation: RAT, LIVER, S-9, AROCLOR 1254, Method: STANDARD PLATE
[6] = Test System: AMES SALMONELLA TYPHIMURIUM, Strain/Indicator: TA102, Metabolic Activation: NONE, Method: STANDARD PLATE

Question: `[2H]C([2H])([2H])N=NO` was tested. Which mutagenic call [1] did it give?
Answer: active; positive

Question: And the mutagenic call (Test System: E. COLI, Strain/Indicator: WP2, Metabolic Activation: NONE, Method: STANDARD PLATE)?
Answer: active; positive

Question: And the mutagenic call (Test System: E. COLI, Strain/Indicator: WP2 UVRA, Metabolic Activation: NONE, Method: STANDARD PLATE)?
Answer: active; positive

Question: With `[S]1[S][SbH][S][S][SbH]1` as the compound, how does the mutagenic call (Test System: CHINESE HAMSTER OVARY, Strain/Indicator: CHO (HGPRT)/6-THIOGUANINE, Metabolic Activation: NONE) read?
Answer: inactive; negative

Question: And the mutagenic call (Test System: CHINESE HAMSTER OVARY, Strain/Indicator: CHO (HGPRT)/6-THIOGUANINE, Metabolic Activation: RAT, LIVER, S-9, AROCLOR 1254)?
Answer: inactive; negative

Question: Which mutagenic call [2] does the source give for `O=C1CCC(=O)N1c1ccc(Cl)c(Cl)c1Cl` here?
Answer: inactive; negative

Question: And the mutagenic call [3]?
Answer: inactive; negative

Question: And the mutagenic call [4]?
Answer: inactive; negative

Question: What about the mutagenic call [5] of the same compound?
Answer: inactive; negative

Question: How did the mutagenic call [2] turn out when `COc1c(Cl)ccc2oc3cc4c(c(OC)c3c(=O)c12)[C@@H]1C=CO[C@@H]1O4` was run?
Answer: inactive; negative

Question: And the mutagenic call [3]?
Answer: active; positive

Question: What about the mutagenic call [4] of the same compound?
Answer: active; positive

Question: What about the mutagenic call [5] of the same compound?
Answer: active; positive

Question: How did the mutagenic call (End Point: IN VITRO CHROMOSOMAL ABERRATIONS, Test System: HUMAN PERIPHERAL LYMPHOCYTES, Metabolic Activation: NONE) turn out when `O=[N+]([O-])c1ccc(Cl)c(F)c1` was run?
Answer: inactive; negative

Question: With `O=P1(N(CCCl)CCCl)NC(OO)CCO1` (configuration not stated) as the compound, how does the mutagenic call (Test System: UDS HUMAN LYMPHOCYTES, Strain/Indicator: THY INCORP (NON-S-PHASE), Metabolic Activation: NONE, Method: LIQUID SCINTILLATION COUNTING) read?
Answer: active; positive

Question: `O=S(=O)(O)N(O)S(=O)(=O)O` was tested. Which mutagenic call (Test System: AMES SALMONELLA TYPHIMURIUM, Strain/Indicator: G46, Metabolic Activation: RAT, LIVER, S-9, AROCLOR 1254, Method: STANDARD PLATE) did it give?
Answer: active; positive

Question: What about the mutagenic call [5] of the same compound?
Answer: active; positive

Question: With `CCOC(=O)[C@@H](N)CS` as the compound, how does the mutagenic call [6] read?
Answer: active; positive

Question: For `Nc1ccc2c(c1)-c1ccccc1C2`, which mutagenic call (Test System: AMES SALMONELLA TYPHIMURIUM, Strain/Indicator: TA98, Metabolic Activation: RAT, LIVER, S-9, AROCLOR 1254 (2 OR 4%), Method: STANDARD PLATE) is on record?
Answer: active; positive

Question: And the mutagenic call (Test System: AMES SALMONELLA TYPHIMURIUM, Strain/Indicator: TA100, Metabolic Activation: RAT, LIVER, S-9, AROCLOR 1254 (4%), Method: STANDARD PLATE)?
Answer: active; positive

Question: What about the mutagenic call (Test System: AMES SALMONELLA TYPHIMURIUM, Strain/Indicator: TA1535, Metabolic Activation: RAT, LIVER, S-9, AROCLOR 1254 (4%), Method: STANDARD PLATE) of the same compound?
Answer: inactive; negative

Question: What about the mutagenic call (Test System: AMES SALMONELLA TYPHIMURIUM, Strain/Indicator: TA1537, Metabolic Activation: RAT, LIVER, S-9, AROCLOR 1254 (4%), Method: STANDARD PLATE) of the same compound?
Answer: active; positive

Question: Which results are given for `CCN(CC)Cc1cc(Nc2ccnc3cc(Cl)ccc23)ccc1O`?
Answer: mutagenic call (Test System: AMES SALMONELLA TYPHIMURIUM, Strain/Indicator: TA97A, Metabolic Activation: NONE, Method: STANDARD PLATE): inactive; negative; mutagenic call (Test System: AMES SALMONELLA TYPHIMURIUM, Strain/Indicator: TA97A, Metabolic Activation: RAT LIVER S-9, PHENOBARBITAL, Method: STANDARD PLATE): inactive; negative; mutagenic call [4]: inactive; negative; mutagenic call (Test System: AMES SALMONELLA TYPHIMURIUM, Strain/Indicator: TA100, Metabolic Activation: RAT LIVER S-9, PHENOBARBITAL, Method: STANDARD PLATE): inactive; negative; mutagenic call [6]: inactive; negative; mutagenic call (Test System: AMES SALMONELLA TYPHIMURIUM, Strain/Indicator: TA102, Metabolic Activation: RAT LIVER S-9, PHENOBARBITAL, Method: STANDARD PLATE): inactive; negative; mutagenic call (Test System: AMES SALMONELLA TYPHIMURIUM, Strain/Indicator: TA104, Metabolic Activation: NONE, Method: STANDARD PLATE): inactive; negative; mutagenic call (Test System: AMES SALMONELLA TYPHIMURIUM, Strain/Indicator: TA104, Metabolic Activation: RAT LIVER S-9, PHENOBARBITAL, Method: STANDARD PLATE): inactive; negative

Question: `CCCO` was tested. Which mutagenic call (Test System: AMES SALMONELLA TYPHIMURIUM, Strain/Indicator: TA98, Metabolic Activation: HAMSTER, LIVER, S-9, AROCLOR 1254, Method: STANDARD PLATE) did it give?
Answer: inactive; negative

Question: What about the mutagenic call [2] of the same compound?
Answer: inactive; negative

Question: What about the mutagenic call [3] of the same compound?
Answer: inactive; negative

Question: And the mutagenic call (Test System: AMES SALMONELLA TYPHIMURIUM, Strain/Indicator: TA100, Metabolic Activation: HAMSTER, LIVER, S-9, AROCLOR 1254, Method: STANDARD PLATE)?
Answer: inactive; negative

Question: What about the mutagenic call [4] of the same compound?
Answer: inactive; negative

Question: What about the mutagenic call [5] of the same compound?
Answer: inactive; negative

Question: And the mutagenic call (Test System: AMES SALMONELLA TYPHIMURIUM, Strain/Indicator: TA1535, Metabolic Activation: HAMSTER, LIVER, S-9, AROCLOR 1254, Method: STANDARD PLATE)?
Answer: inactive; negative

Question: And the mutagenic call [1]?
Answer: inactive; negative

Question: And the mutagenic call (Test System: AMES SALMONELLA TYPHIMURIUM, Strain/Indicator: TA1535, Metabolic Activation: RAT, LIVER, S-9, AROCLOR 1254, Method: STANDARD PLATE)?
Answer: inactive; negative

Question: And the mutagenic call (Test System: AMES SALMONELLA TYPHIMURIUM, Strain/Indicator: TA1537, Metabolic Activation: HAMSTER, LIVER, S-9, AROCLOR 1254, Method: STANDARD PLATE)?
Answer: inactive; negative

Question: What about the mutagenic call (Test System: AMES SALMONELLA TYPHIMURIUM, Strain/Indicator: TA1537, Metabolic Activation: NONE, Method: STANDARD PLATE) of the same compound?
Answer: inactive; negative

Question: What about the mutagenic call (Test System: AMES SALMONELLA TYPHIMURIUM, Strain/Indicator: TA1537, Metabolic Activation: RAT, LIVER, S-9, AROCLOR 1254, Method: STANDARD PLATE) of the same compound?
Answer: inactive; negative

Question: What about the mutagenic call (Test System: AMES SALMONELLA TYPHIMURIUM, Strain/Indicator: TA1538, Metabolic Activation: HAMSTER, LIVER, S-9, AROCLOR 1254, Method: STANDARD PLATE) of the same compound?
Answer: inactive; negative

Question: And the mutagenic call (Test System: AMES SALMONELLA TYPHIMURIUM, Strain/Indicator: TA1538, Metabolic Activation: NONE, Method: STANDARD PLATE)?
Answer: inactive; negative

Question: What about the mutagenic call (Test System: AMES SALMONELLA TYPHIMURIUM, Strain/Indicator: TA1538, Metabolic Activation: RAT, LIVER, S-9, AROCLOR 1254, Method: STANDARD PLATE) of the same compound?
Answer: inactive; negative

Question: What about the mutagenic call (Test System: MOUSE LYMPHOMA, Strain/Indicator: L5178Y (TK+/TK-), Metabolic Activation: NONE, Method: SUSPENSION/PLATE) of the same compound?
Answer: inactive; negative

Question: And the mutagenic call (Test System: MOUSE LYMPHOMA, Strain/Indicator: L5178Y (TK+/TK-), Metabolic Activation: RAT, LIVER, S-9, AROCLOR 1254, Method: SUSPENSION/PLATE)?
Answer: inactive; negative
